{
  "source": "patent US9919015B2",
  "about": "“Composition and method for inhibiting herpesviridae infections” (VIRATEC PTY LTD, priority 2005, dated 2018)",
  "origin": "cited, not measured here",
  "key": {"[1]": {"test_system": "Oral Hairy Leukoplakia (EBV)"}, "[2]": {"test_system": "recurrent genital herpetic infection", "details": "for healing rate, oral acyclovir: Nilsen et al. (1982); for healing rate, topical acyclovir: Corey et al. (1982)"}, "herpes zoster": {"test_system": "herpes zoster", "details": "Esmann et al. (1982); Bean et al (1983)"}, "[3]": {"test_system": "recurrent herpes labialis", "details": "treatment commenced within 1 hour; Rabon et al. (1989)"}, "[4]": {"test_system": "primary herpetic gingivostomatitis", "details": "Primary Herpetic Stomatitis"}},
  "note": "Where two headings read alike, the source gives them in different places.",
  "data": [
    {"compound": "Nc1nc2c(ncn2COCCO)c(=O)[nH]1", "note": "[Acyclovir, acyclovir]", "values": [
      {"measurement": "response, subjects", "setting": "[1]; oral acyclovir, after 10 days, Resnick et al (1988)", "result": "5/6"},
      {"measurement": "response time with oral acyclovir", "setting": "[1]; Herbst et al. (1989), Resnick et al (1988)", "result": "10-20 days - oral"},
      {"measurement": "response time with oral acyclovir", "setting": "[1]; Herbst et al. (1989), Resnick et al (1988), listed as acyclovir", "result": "10 to 20", "unit": "days"},
      {"measurement": "resolution of OHL, subjects", "setting": "[1]; systemic acyclovir, after 20 days, Herbst et al. (1989)", "result": "12/14"},
      {"measurement": "healing rate, oral acyclovir", "setting": "[2]", "result": 5, "unit": "days oral"},
      {"measurement": "healing rate, oral acyclovir", "setting": "[2]; listed as acyclovir", "result": 5, "unit": "days"},
      {"measurement": "healing rate, topical acyclovir", "setting": "[2]", "result": 7.4, "unit": "days topical"},
      {"measurement": "healing rate, topical acyclovir", "setting": "[2]; listed as acyclovir", "result": 7.4, "unit": "days"},
      {"measurement": "time to initial crusting with acyclovir", "setting": "herpes zoster", "result": "2 to 3", "unit": "days"},
      {"measurement": "complete healing with acyclovir", "setting": "[3]", "result": "7 to 8", "unit": "days"},
      {"measurement": "time to analgesia with acyclovir", "setting": "[3]", "result": "1 to 2", "unit": "days"},
      {"measurement": "Expected healing time Acyclovir (upper end)", "setting": "[4]", "result": "≤ 4", "unit": "weeks"},
      {"measurement": "Expected healing time Acyclovir", "setting": "[4]; treated symptomatically or with acyclovir, listed as acyclovir", "result": "10 to 28", "unit": "days"}
    ]}
  ]
}
